Data set [1] concerns Mus musculus. Put plainly: Improvement in depression-like behavior in ip dosed ICR mouse model of chronic unpredictable mild stress assessed as improvement in sugar consumption administered once a day for 10 days post 8 week of chronic unpredictable mild stress by sugar preference test. It counts as functional, organism-based. Conditions: dose 6-24 mg/kg, time 10.0 day.
The subject of data set [2] is Mus musculus. The data set can be described thus: Improvement in depression-like behavior in ICR mouse model of chronic unpredictable mild stress assessed as reduction in immobility time at 6 to 24 mg/kg, ip administered once a day for 10 days post 8 week of chronic unpredictable mild stress by forced swim test. The class given is functional, organism-based. The note with it: dose 6-24 mg/kg, time 10.0 day.

The subject of data set [3] is Mus musculus. Put plainly: Antineuroinflammatory activity in ip dosed ICR mouse model of chronic unpredictable mild stress assessed as reduction in IL-6 level in serum administered once a day for 1 week post 8 week of chronic unpredictable mild stress and measured after 1 week by ELISA. The class given is functional, organism-based. Conditions: dose 6-12 mg/kg, time 2.0 weeks.

Data set [4] relates to Mus musculus. The data set can be described thus: Antidepressant activity in ip dosed ICR mouse model of chronic unpredictable mild stress assessed as downregulation of neuronal apoptosis by measuring reduction in caspase-3 protein level in hippocampus administered once a day for 1 week post 8 week of chronic unpredictable mild stress and measured after 1 week by Western blot analysis. The note with it: dose 6-24 mg/kg, time 2.0 weeks. The class given is functional, organism-based.

The subject of data set [5] is Mus musculus. Put plainly: Antineuroinflammatory activity in ip dosed ICR mouse model of chronic unpredictable mild stress assessed as reduction in IL-1beta level in serum administered once a day for 1 week post 8 week of chronic unpredictable mild stress and measured after 1 week by ELISA. It counts as functional, organism-based. The note with it: dose 6-12 mg/kg, time 2.0 weeks.

The nature of data set [6]: Observed clearance in male ICR mouse at 1 mg/kg, iv measured upto 480 mins by LC-MS/MS analysis. The class given is ADME, organism-based. The note with it: in vivo, 8 h.
Data set [7] is described as follows: Neurotoxicity against human SH-SY5Y cells assessed as reduction in cell viability at 100 uM by CCK-8 assay. It counts as toxicity, cell-based.
Data set [8] can be described thus: Drug concentration in male ICR mouse brain at 1 mg/kg, iv measured after 30 mins by LC-MS/MS analysis. Conditions: read-out: Ct. The class given is ADME, organism-based.
Data set [9] has as its system Mus musculus. Put plainly: Antidepressant activity in ip dosed ICR mouse model of chronic unpredictable mild stress assessed as reduction in sphingosine-1-phosphate level in hippocampus administered once a day for 1 week post 8 week of chronic unpredictable mild stress and measured after 1 week by ELISA. It counts as functional, organism-based. The note with it: dose 6-12 mg/kg, time 2.0 weeks.

The test system of data set [10] is Mus musculus. The data set can be described thus: Antidepressant activity in ip dosed ICR mouse model of chronic unpredictable mild stress assessed as reduction in oxidative stress by measuring increase in SOD level in cerebral cortex administered once a day for 1 week post 8 week of chronic unpredictable mild stress and measured after 1 week by ELISA. The note with it: dose 6-12 mg/kg, time 2.0 weeks. It counts as functional, organism-based.

The subject of data set [11] is Mus musculus. Put plainly: Antidepressant activity in ip dosed ICR mouse model of chronic unpredictable mild stress assessed as downregulation of neuronal apoptosis by measuring reduction in caspase-9 protein level in hippocampus administered once a day for 1 week post 8 week of chronic unpredictable mild stress and measured after 1 week by Western blot analysis. Conditions: dose 6-24 mg/kg, time 2.0 weeks. The class given is functional, organism-based.

In data set [12] the test system is Mus musculus. Put plainly: Antineuroinflammatory activity in ip dosed ICR mouse model of chronic unpredictable mild stress assessed as reduction in TNFalpha level in serum administered once a day for 1 week post 8 week of chronic unpredictable mild stress and measured after 1 week by ELISA. The class given is functional, organism-based. The note with it: dose 6-12 mg/kg, time 2.0 weeks.

The test system of data set [13] is Mus musculus. The data set can be described thus: Antidepressant activity in ICR mouse model of chronic unpredictable mild stress assessed as reduction in sphingomyelin level in hippocampus at 12 mg/kg, ip administered once a day for 1 week post 8 week of chronic unpredictable mild stress and measured after 1 week by ELISA. It counts as functional, organism-based. The note with it: time 2.0 weeks.

The nature of data set [14]: Neurotoxicity against human SH-SY5Y cells assessed as reduction in cell viability at 5 to 20 uM by CCK-8 assay. The class given is toxicity, cell-based. The note with it: dose 5-20 µM.
Data set [15] in a line: Drug concentration in male ICR mouse plasma at 1 mg/kg, iv measured after 60 mins by LC-MS/MS analysis. The class given is ADME, organism-based.

Active and inactive are the calls of the source. The calls are words filed in the database; no cut-off is given here.

The values that follow come from ChEMBL document CHEMBL5512696, “Discovery of a Novel ASM Direct Inhibitor with a 1,5-Diphenyl-pyrazole Scaffold and Its Antidepressant Mechanism of Action” (J Med Chem, 2024).

Take `O=C(NO)c1cc(-c2ccc(Br)cc2)n(-c2ccc(Cl)cc2)n1`: the outcome in the data set with Mus musculus [1], with Mus musculus [2] and in the data set on Mus musculus [13] was Active. Further, the Activity result in the data set with Mus musculus [3] was “Dose-Dependent Effect”; in the data set on Mus musculus [4], “Dose-Dependent Effect”; with Mus musculus [5], “Dose-Dependent Effect”; in [7], “Toxic”; in the data set with Mus musculus [9] it was “Dose-Dependent Effect”; in the data set with Mus musculus [10] it was “Dose-Dependent Effect”. Further, the Activity result with Mus musculus [11] was “Dose-Dependent Effect”; in the data set with Mus musculus [12] it was “Dose-Dependent Effect”; in [14], “Non-Toxic”. This compound also returned a CL in data set [6] of 45.8798 mL/min/kg. The concentration at 0.5 h in [8] amounted to 83.1 ng/mL. Moreover, the concentration at 1 h in [15] is 55.6 ng/mL.
